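Grown in 96-well plates, cells were treated for 48 hours with each compound at five concentrations. Insufficient inhibition: endpoint recorded as highest concentration tested. GI50: concentration for 50% inhibition of growth. At the TGI there is no net growth.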
Columns and labels:
Test in all cases: NCI tumour cell line growth inhibition, 48 h
HCT-116 colon = system: HCT-116 colon
SK-OV-3 ovarian = system: SK-OV-3 ovarian
SK-MEL-5 melanoma = system: SK-MEL-5 melanoma
RXF 393 renal = system: RXF 393 renal
KM12 colon = system: KM12 colon
HOP-62 NSCLC = system: HOP-62 NSCLC
MOLT-4 leukemia = system: MOLT-4 leukemia
MALME-3M melanoma = system: MALME-3M melanoma
SN12C renal = system: SN12C renal
HCC-2998 colon = system: HCC-2998 colon
OVCAR-3 ovarian = system: OVCAR-3 ovarian
UACC-257 melanoma = system: UACC-257 melanoma
SK-MEL-28 melanoma = system: SK-MEL-28 melanoma
UACC-62 melanoma = system: UACC-62 melanoma
SF-268 CNS = system: SF-268 CNS
M14 melanoma = system: M14 melanoma
SNB-75 CNS = system: SNB-75 CNS
BT-549 breast = system: BT-549 breast
SW-620 colon = system: SW-620 colon
OVCAR-5 ovarian = system: OVCAR-5 ovarian
TK-10 renal = system: TK-10 renal
NCI-H522 lung = system: NCI-H522 lung
SNB-19 CNS = system: SNB-19 CNS
HS 578T breast = system: HS 578T breast
NCI/ADR-RES ovarian = system: NCI/ADR-RES ovarian
OVCAR-8 ovarian = system: OVCAR-8 ovarian
LOX IMVI melanoma = system: LOX IMVI melanoma
EKVX NSCLC = system: EKVX NSCLC
SK-MEL-2 melanoma = system: SK-MEL-2 melanoma
NCI-H23 lung = system: NCI-H23 lung
NCI-H460 lung = system: NCI-H460 lung
U251 CNS = system: U251 CNS
HCT-15 colon = system: HCT-15 colon
786-0 renal = system: 786-0 renal
HT29 colon = system: HT29 colon
CCRF-CEM leukemia = system: CCRF-CEM leukemia
UO-31 renal = system: UO-31 renal
HOP-92 NSCLC = system: HOP-92 NSCLC
ACHN renal = system: ACHN renal
NCI-H226 lung = system: NCI-H226 lung
A498 renal = system: A498 renal
CAKI-1 renal = system: CAKI-1 renal
PC-3 prostate = system: PC-3 prostate
RPMI-8226 leukemia = system: RPMI-8226 leukemia
OVCAR-4 ovarian = system: OVCAR-4 ovarian
HL-60(TB) leukemia = system: HL-60(TB) leukemia
MDA-MB-435 = system: MDA-MB-435
MCF7 breast = system: MCF7 breast
K-562 leukemia = system: K-562 leukemia
A549 NSCLC = system: A549 NSCLC
IGROV1 ovarian = system: IGROV1 ovarian
MDA-MB-231 breast = system: MDA-MB-231 breast
DU-145 prostate = system: DU-145 prostate
SF-295 CNS = system: SF-295 CNS
COLO 205 colon = system: COLO 205 colon
MDA-MB-468 breast = system: MDA-MB-468 breast
T-47D breast = system: T-47D breast
SF-539 CNS = system: SF-539 CNS

## CN(C)c1nc(NCCNS(=O)(=O)c2ccc(C(=O)/C=C/c3ccc(Cl)cc3)cc2)nc(Nc2ccc(F)cc2)n1
HCT-116 colon
  GI50: 1.66 µM
  TGI: 3.11 µM
SK-OV-3 ovarian
  GI50: 11.5 µM
  TGI: 27.7 µM
SK-MEL-5 melanoma
  GI50: 5.89 µM
  TGI: 18.8 µM
RXF 393 renal
  GI50: 3.09 µM
  TGI: 15.1 µM
KM12 colon
  GI50: 2.97 µM
  TGI: 9.11 µM
HOP-62 NSCLC
  GI50: 12.5 µM
  TGI: 27.5 µM
MOLT-4 leukemia
  GI50: 3.07 µM
  TGI: > 100 µM
MALME-3M melanoma
  GI50: 12.8 µM
  TGI: 26.4 µM
SN12C renal
  GI50: 3.79 µM
  TGI: 15.9 µM
HCC-2998 colon
  GI50: 2.48 µM
  TGI: 6.9 µM
OVCAR-3 ovarian
  GI50: 3.16 µM
  TGI: 11.9 µM
UACC-257 melanoma
  GI50: 8.36 µM
  TGI: 21.8 µM
SK-MEL-28 melanoma
  GI50: 6.77 µM
  TGI: 20.1 µM
UACC-62 melanoma
  GI50: 5.41 µM
  TGI: 18.7 µM
SF-268 CNS
  GI50: 6.21 µM
  TGI: 23.5 µM
M14 melanoma
  GI50: 4.14 µM
  TGI: 15.3 µM
SNB-75 CNS
  GI50: 5.6 µM
  TGI: 25.7 µM
BT-549 breast
  GI50: 11.6 µM
  TGI: 23.9 µM
SW-620 colon
  GI50: 2.78 µM
  TGI: 11 µM
OVCAR-5 ovarian
  GI50: 10.7 µM
  TGI: 22.6 µM
TK-10 renal
  GI50: 11.7 µM
  TGI: 30.3 µM
NCI-H522 lung
  GI50: 7.1 µM
  TGI: 22 µM
SNB-19 CNS
  GI50: 9.18 µM
  TGI: 21.3 µM
HS 578T breast
  GI50: 11.4 µM
  TGI: 58.1 µM
NCI/ADR-RES ovarian
  GI50: 5.49 µM
  TGI: 18.4 µM
OVCAR-8 ovarian
  GI50: 10.2 µM
  TGI: 23.7 µM
LOX IMVI melanoma
  GI50: 2.74 µM
  TGI: 9.16 µM
EKVX NSCLC
  GI50: 3.11 µM
  TGI: 14.7 µM
SK-MEL-2 melanoma
  GI50: 5.47 µM
  TGI: 19.5 µM
NCI-H23 lung
  GI50: 10.7 µM
  TGI: 23.4 µM
NCI-H460 lung
  GI50: 3.38 µM
  TGI: 13.8 µM
U251 CNS
  GI50: 5.25 µM
  TGI: 18.6 µM
HCT-15 colon
  GI50: 4.62 µM
  TGI: 16.9 µM
786-0 renal
  GI50: 7.28 µM
  TGI: 20.2 µM
HT29 colon
  GI50: 2.15 µM
  TGI: 5.72 µM
CCRF-CEM leukemia
  GI50: 3.75 µM
  TGI: > 100 µM
UO-31 renal
  GI50: 4 µM
  TGI: 16.6 µM
HOP-92 NSCLC
  GI50: 3.83 µM
  TGI: 14.7 µM
ACHN renal
  GI50: 4.2 µM
  TGI: 15.3 µM
NCI-H226 lung
  GI50: 6.14 µM
  TGI: 24.3 µM
A498 renal
  GI50: 10.5 µM
  TGI: 23.1 µM
CAKI-1 renal
  GI50: 4.93 µM
  TGI: 19.5 µM
PC-3 prostate
  GI50: 3.74 µM
  TGI: 14.1 µM
RPMI-8226 leukemia
  GI50: 2.47 µM
  TGI: 7.11 µM
OVCAR-4 ovarian
  GI50: 5.92 µM
  TGI: 22 µM
HL-60(TB) leukemia
  GI50: 4.39 µM
  TGI: > 100 µM
MDA-MB-435
  GI50: 3.8 µM
  TGI: 14 µM
MCF7 breast
  GI50: 2.28 µM
  TGI: 6.33 µM
K-562 leukemia
  GI50: 3.29 µM
  TGI: > 100 µM
A549 NSCLC
  GI50: 4.52 µM
  TGI: 17.4 µM
IGROV1 ovarian
  GI50: 8.58 µM
  TGI: 21.4 µM
MDA-MB-231 breast
  GI50: 4.72 µM
  TGI: 17.4 µM
DU-145 prostate
  GI50: 9.7 µM
  TGI: 21.8 µM
SF-295 CNS
  GI50: 6.11 µM
  TGI: 19.8 µM
COLO 205 colon
  GI50: 5.96 µM
  TGI: 18.7 µM
MDA-MB-468 breast
  GI50: 3.71 µM
  TGI: 14.8 µM
T-47D breast
  GI50: 4.37 µM
  TGI: 18 µM
SF-539 CNS
  GI50: 10.1 µM
  TGI: 22 µM
